The source of these data is patent publication US20110218143A1, “COMPOSITIONS AND METHODS FOR TISSUE REPAIR” (UNIVERSITY OF FLORIDA RESEARCH FOUNDATION, priority 2007, published 2011).

Series [1] relates to stem cell populations in blood (cd34+, cd45+, Sca-1+ cells). In words: FACS of cells expressing stem cell markers CD34, CD45, Sca-1 in blood samples. The series is classed as in vivo, C57BL6/J mice. On the procedure:
Mice received either a placebo or triptolide (400 μg/kg) by intraperitoneal injection.
Celastrol analogs administered included dihydrocelastrol, dihydrocelastrol diacetate, and pristimerol (dihydropristimerin). Mice received either a placebo or a celastrol analog (3.0 mg/kg) by intraperitoneal injection.
(§1) Mice received either a placebo (PBS) or oridonin (3.0 mg/kg) by intraperitoneal injection.

For series [2], the system named is stem cell populations in bone marrow (cd34+, cd45+, Sca-1+ cells). Put plainly: FACS of cells expressing stem cell markers CD34, CD45, Sca-1 in bone marrow samples. It is filed as in vivo, C57BL6/J mice. To be noted: 24 hours post treatment. On the procedure: as §1
Another series deals with mice. The following applies: mouse, in vivo.
Series [3] deals with stem cell populations in blood (cd34+, cd45+, Sca-1+ cells). In words: FACS of cells expressing stem cell markers CD34, CD45, Sca-1 in blood samples. It is filed as in vivo, C57BL6/J mice. To be noted: valproic acid 200 mg/kg i.p.; 72 hours post treatment.
Where [4] appears, read: valproic acid 200 mg/kg i.p., 72 hours post treatment.
Setting [5] is: celastrol analog 3.0 mg/kg i.p., 24 hours post treatment (so in the source).
[6] abbreviates: celastrol analog 3.0 mg/kg i.p.

Procedure for mice: Valproic acid was administered to C57BL6/J mice to determine the effect of valproic acid on stem cell populations in bone marrow and in blood. Mice received either a placebo or valproic acid (200 mg/kg) by intraperitoneal injection. […] Bone marrow samples were taken from both groups of mice at 24 hours after administration of the placebo or valproic acid. Blood samples were taken from both groups of mice at 72 hours after administration of the placebo or valproic acid. The bone marrow samples and blood samples were analyzed by FACS for cells expressing stem cell markers. To observe the effect of treatment with valproic acid, cells expressing the stem cell markers CD34, CD45, and Sca-1 in the bone marrow and blood samples, were quantitated as a percentage of the total populations in their respective samples (i.e., in the bone marrow sample and in the blood sample, respectively).

For the compound `CCCC(CCC)C(=O)O` [valproic acid], in series [1] (setting [4]), the “Sca-1+ cells, percent of the population of blood cells” value is reported as “less than 0.4%”; the “cd34+ cells, percent of the population of blood cells” value is reported as “greater than 0.4%”; the “cd45+ cells, percent of the population of blood cells” value is on record as “less than 0.2%”; the “fold increase of percentage of cd34+ cells in blood over control” value is around 2.6 fold. Further, in series [2] (valproic acid 200 mg/kg i.p.), the “CD34 cells, percent of the population of bone marrow cells” value is given as “about 0.2%”; the “Sca-1+ cells, percent of the population of bone marrow cells” value is on record as “about 0.18%”; the “cd45+ cells, percent of the population of bone marrow cells” value was “about 0.08%”; the “fold increase of percentage of Sca-1+ cells in bone marrow over control” value is reported as around 6 fold. In series [2] (valproic acid 200 mg/kg i.p.), the “fold increase of percentage of cd34+ cells in bone marrow over control” value is listed as at least 4 fold and the “fold increase of percentage of cd45+ cells in bone marrow over control” value is at least 3 fold. Besides, the toxicity in mice result in the series on mice is recorded as “not toxic”. Further, in series [3], the “fold increase of percentage of Sca-1+ cells in blood over control” value was around 3 fold and the “fold increase of percentage of cd45+ cells in blood over control” value is listed as around 4 fold.

`Cc1c(O)c(O)cc2c1CC=C1[C@@]2(C)CC[C@@]2(C)[C@@H]3C[C@](C)(C(=O)O)CC[C@]3(C)CC[C@]12C` [dihydrocelastrol]: in series [1] (setting [5]), the “Sca-1+ cells, percent of the population of blood cells” value is reported as 0.4%; the “cd34+ cells, percent of the population of blood cells” value is listed as “approximately 0.6%”; the “cd45+ cells, percent of the population of blood cells” value is reported as “about 0.19%”; the “fold increase of percentage of Sca-1+ cells in blood over control” value was around 10 fold. Besides, in series [1] (setting [5]), the “fold increase of percentage of cd34+ cells in blood over control” value is reported as around 4 fold and the “fold increase of percentage of cd45+ cells in blood over control” value is recorded as around 10 fold. In series [2] (setting [6]), the “Sca-1+ cells, percent of the population of bone marrow cells” value is recorded as 0.14%; the “cd34+ cells, percent of the population of bone marrow cells” value is 0.15%; the “cd45+ cells, percent of the population of bone marrow cells” value is reported as 0.04%; the “change of percentage of cd45+ cells in bone marrow compared to untreated control” value is listed as “slight increase”. In series [2] (setting [6]), the “fold increase of percentage of Sca-1+ cells in bone marrow over control” value is around 3 fold and the “fold increase of percentage of cd34+ cells in bone marrow over control” value is on record as around 3 fold.
